From article PMC7071059, “Targeting Receptor Tyrosine Kinase VEGFR-2 in Hepatocellular Cancer: Rational Design, Synthesis and Biological Evaluation of 1,2-Disubstituted Benzimidazoles” (Molecules, 2020)

Tests used:
PDGFR-β = PDGFR-β (Homo sapiens, UniProt P09619); assay: Biochemical kinase assay
Description: (§1) This assay was carried out using the VEGFR-2 kinase enzyme system or FGFR-1 kinase enzyme system and Kinase-Glo Plus luminescence kinase (Promega) kits according to the manufacturers´ protocols. This assay evaluated the activity of kinase by measuring the amount of ATP remaining in solution after a kinase reaction. The luminescent signal from the assay was related to the quantity of ATP available, which was inversely proportional to the amount of kinase activity. […] Subsequently, serial dilutions were carried out, and 5 µL of the dilution was added to a 50 µL reaction. The enzymatic reactions were performed at 30 °C for 45 minutes. […] After the enzymatic reaction, 50 µL of Kinase-Glo Plus Luminescence kinase assay solution was added to each reaction, and the plates were incubated for 15 minutes at room temperature. The luminescence signal was measured using a Tecan–spark multimode microplate reader. The difference between luminescence intensities in the absence of Kinase (Lut) and in the presence of Kinase (Luc) was defined as 100% activity (Lut − Luc). Using a luminescence signal (Lu) in the presence of the compound, % activity was calculated as: % activity = {(Lut − Lu)/(Lut − Luc)}×100%, where Lu = the luminescence intensity in the presence of the compound.

HepG2 cells [1] = assay: Analysis of cell cycle distribution, flow cytometry of propidium iodide-stained nuclei; type: cell-based, human; conditions: HepG2, 2 µM, 48 h
Description: Based on the promising antiproliferative activity and antiangiogenic activity of series 17, compound 17a was further assayed for its effect on the cell cycle distribution by flow cytometric analyses of propidium iodide-stained nuclei at 2 µM. Cell cycle parameters were compared for HepG2 cells with DMSO as control and after treatment with 17a and incubation for 48 h, and the results were depicted in Figure 8.
After treatment with test compounds for 48 h, cells (10^5 cells) were collected by trypsinization and washed twice with ice-cold PBS (pH 7.4). Cells were resuspended in two milliliters of 60% ice-cold ethanol and incubated at 4 °C for 1 h for fixation. Fixed cells were washed twice again with PBS (pH 7.4) and resuspended in 1 mL of PBS containing 50 µg/mL RNAase A and 10 µg/mL propidium iodide (PI). After 20 min of incubation in dark at 37 °C, cells were analyzed for DNA contents using flow cytometry analysis using an FL2 (λex/em 535/617 nm) signal detector (ACEA Novocyte™ flowcytometer, ACEA Biosciences Inc., San Diego, CA, USA). For each sample, 12,000 events were acquired. The cell cycle distribution was calculated using ACEA NovoExpress™ software (ACEA Biosciences Inc., San Diego, CA, USA).

FGFR-1 = FGFR-1 (Homo sapiens, UniProt P11362); assay: Biochemical kinase assay (Kinase-Glo Plus luminescence)
Description: as §1

HepG2 cells [2] = assay: Apoptosis assay, Annexin V-FITC/PI flow cytometry; type: cell-based, human; conditions: 48 h; for early apoptotic phase (Q4): control 0.80%; for late apoptotic phase (Q2): control 4.59%
Source text: Moreover, in order to examine the effect of compound 17a on cell apoptosis (programed cell death), the morphological markers of apoptosis of the HepG2 cell line were examined before and after treatment with 17a. This assay is based on the fact that cells performing apoptosis translocate their phosphatidylserine (PS) phospholipid to the cell surface, which, in turn, can be easily detected by staining with a fluorescent conjugate of annexin V, followed by flow cytometry analysis. Concurrently, the HepG2 cells were stained with propidium iodide (PI), which enters only cells with damaged plasma membranes. This stain allows the discrimination between early apoptotic cells (positive for PS, but negative for PI) from late apoptotic and necrotic cells (positive for both PS and PI).
Apoptosis and necrosis cell populations were determined using an Annexin V-FITC apoptosis detection kit (Abcam Inc., Cambridge Science Park, Cambridge, UK) coupled with 2 fluorescent channels flowcytometry. After treatment with test compounds for 48 h, cells (10^5 cells) were collected by trypsinization and washed twice with ice-cold PBS (pH 7.4). Then, cells were incubated in the dark with 0.5 ml of Annexin V-FITC/PI solution for 30 min in the dark at room temperature, according to the manufacturer’s protocol. After staining, cells were injected via ACEA Novocyte™ flowcytometer (ACEA Biosciences Inc., San Diego, CA, USA) and analyzed for FITC and PI fluorescent signals using FL1 and FL2 signal detectors, respectively (λex/em 488/530 nm for FITC and λex/em 535/617 nm for PI). For each sample, 12,000 events were acquired, and positive FITC and/or PI cells were quantified by quadrant analysis and calculated using ACEA NovoExpress™ software (ACEA Biosciences Inc., San Diego, CA, USA).

Sequence of FGFR-1 (P11362 22-822): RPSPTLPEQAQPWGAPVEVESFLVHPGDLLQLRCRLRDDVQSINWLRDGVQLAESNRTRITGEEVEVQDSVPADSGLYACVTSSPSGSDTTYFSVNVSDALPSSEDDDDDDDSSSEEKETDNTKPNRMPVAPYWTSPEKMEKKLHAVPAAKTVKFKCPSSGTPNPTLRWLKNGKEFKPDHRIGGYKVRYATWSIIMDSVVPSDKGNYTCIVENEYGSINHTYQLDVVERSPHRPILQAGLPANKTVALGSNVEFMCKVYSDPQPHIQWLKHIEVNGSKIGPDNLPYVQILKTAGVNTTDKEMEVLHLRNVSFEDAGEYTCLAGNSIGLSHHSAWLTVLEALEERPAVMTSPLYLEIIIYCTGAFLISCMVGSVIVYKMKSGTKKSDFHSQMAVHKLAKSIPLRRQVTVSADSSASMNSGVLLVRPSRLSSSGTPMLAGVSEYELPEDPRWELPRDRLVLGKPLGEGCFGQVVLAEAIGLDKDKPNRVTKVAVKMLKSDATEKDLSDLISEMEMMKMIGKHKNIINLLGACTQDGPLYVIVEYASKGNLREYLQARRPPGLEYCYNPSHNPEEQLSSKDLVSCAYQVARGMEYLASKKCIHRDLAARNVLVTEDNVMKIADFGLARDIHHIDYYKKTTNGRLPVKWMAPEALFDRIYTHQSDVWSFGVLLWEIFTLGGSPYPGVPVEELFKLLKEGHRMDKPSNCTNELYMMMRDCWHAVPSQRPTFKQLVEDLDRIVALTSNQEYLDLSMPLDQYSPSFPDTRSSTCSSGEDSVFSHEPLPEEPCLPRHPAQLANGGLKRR
Sequence of PDGFR-β (P09619 33-1106): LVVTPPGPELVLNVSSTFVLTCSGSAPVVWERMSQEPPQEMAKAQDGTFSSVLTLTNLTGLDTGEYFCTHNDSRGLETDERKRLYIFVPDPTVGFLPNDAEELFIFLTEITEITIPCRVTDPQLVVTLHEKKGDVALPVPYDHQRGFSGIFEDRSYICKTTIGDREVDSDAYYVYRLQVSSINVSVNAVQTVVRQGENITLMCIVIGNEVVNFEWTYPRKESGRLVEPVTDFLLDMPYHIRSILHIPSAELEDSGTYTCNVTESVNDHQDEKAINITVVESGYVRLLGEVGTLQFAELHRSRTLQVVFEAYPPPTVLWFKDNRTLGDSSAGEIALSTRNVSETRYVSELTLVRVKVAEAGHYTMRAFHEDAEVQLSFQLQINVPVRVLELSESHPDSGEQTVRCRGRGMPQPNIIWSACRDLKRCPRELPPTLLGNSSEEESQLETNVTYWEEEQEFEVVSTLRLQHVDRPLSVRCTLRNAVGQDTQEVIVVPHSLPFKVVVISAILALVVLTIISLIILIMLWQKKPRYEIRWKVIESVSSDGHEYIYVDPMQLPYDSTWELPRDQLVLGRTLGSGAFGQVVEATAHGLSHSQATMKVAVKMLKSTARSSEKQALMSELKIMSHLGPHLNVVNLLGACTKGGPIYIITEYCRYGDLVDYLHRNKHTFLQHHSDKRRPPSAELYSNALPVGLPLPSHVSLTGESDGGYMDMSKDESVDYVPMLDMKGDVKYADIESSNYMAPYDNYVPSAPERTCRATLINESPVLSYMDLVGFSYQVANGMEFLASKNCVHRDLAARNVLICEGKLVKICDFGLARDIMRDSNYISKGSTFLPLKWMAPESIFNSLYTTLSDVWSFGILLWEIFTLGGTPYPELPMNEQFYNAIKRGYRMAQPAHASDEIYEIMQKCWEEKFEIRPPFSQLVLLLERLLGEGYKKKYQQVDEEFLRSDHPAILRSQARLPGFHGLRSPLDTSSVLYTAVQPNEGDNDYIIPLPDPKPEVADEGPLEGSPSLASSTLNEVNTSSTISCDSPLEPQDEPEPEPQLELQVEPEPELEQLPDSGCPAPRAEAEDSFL

For `CC(C)c1nc2ccccc2n1CC(=O)N/N=C/c1cccc(OCc2ccccc2)c1` [Compound 17a, (E)-N′-(3-(Benzyloxy)benzylidene)-2-(2-isopropyl-1H-benzo[d]imidazol-1-yl)acetohydrazide], the IC50 (PDGFR-β) was 50 ± 2 nM, the “Freq S” value (HepG2 cells [1]) was 26.96% and the “effect on the HepG2 cell cycle” value (HepG2 cells [1]) was “arrests the cell cycle at the G2/M phase”. For the same compound, the “percent of cells accumulated in the G2 phase (Freq G2)” value (HepG2 cells [1]; control 13.43%) was 25.86%, the “percent of cell distribution in the G1 phase (Freq G1)” value (HepG2 cells [1]; control 51.34%) was 46.96% and the IC50 (FGFR-1) was 110 ± 4 nM. The “early apoptotic phase (Q4)” value (HepG2 cells [2]; HepG2, 2 μM) was 2.90%, the “late apoptotic phase (Q2)” value (HepG2 cells [2]; HepG2, 2 μM) was 8.89% and the “early apoptotic phase (Q4)” value (HepG2 cells [2]; HepG2, 5 μM) was 6.32%. The “late apoptotic phase (Q2)” value (HepG2 cells [2]; HepG2, 5 μM) was 9.53%.
